Results reported in ChEMBL document CHEMBL4842337, “Synthesis, computational docking and biological evaluation of celastrol derivatives as dual inhibitors of SERCA and P-glycoprotein in cancer therapy” (Eur J Med Chem, 2021).
Active and inactive are the calls of the source. No cut-off for these calls is given here.

Experiments:
[1] = system: A549; test: Antiproliferative activity against human A549 cells assessed as inhibition of cell proliferation measured after 72 hrs by MTT assay; assay type: functional, cell-based; conditions: A549, 72 h
[2] = system: HepG2; test: Induction of apoptosis in human HepG2 cells assessed as viable cells at 1 uM measured after 24 hrs by Annexin-V/PI staining based flow cytometry assay (reference value: 99.1%); assay type: functional; conditions: read-out: Activity
[3] = Selectivity index, ratio of IC50 for human L02 cells to IC50 for human HepG2 cells; assay type: toxicity; conditions: L02 cells versus HepG2 cells, read-out: Ratio IC50
[4] = Selectivity index, ratio of IC50 for human L02 cells to IC50 for human HePAD38 cells
[5] = Antiproliferative activity against human HePAD38 cells assessed as inhibition of cell proliferation measured after 72 hrs by MTT assay; assay type: functional, cell-based; conditions: HePAD38, 72 h
[6] = system: HepG2; test: Induction of apoptosis in human HepG2 cells assessed as necrotic cells at 1 uM measured after 24 hrs by Annexin-V/PI staining based flow cytometry assay (reference value: 0.725%); assay type: functional
[7] = system: L02; test: Induction of apoptosis in human L02 cells assessed as early apoptotic cells at 1 uM measured after 24 hrs by Annexin-V/PI staining based flow cytometry assay (reference value: 1.49%); assay type: cell-based; conditions: l02, 24 h
[8] = system: HepG2; test: Antiproliferative activity against human HepG2 cells assessed as inhibition of cell proliferation measured after 72 hrs by MTT assay; assay type: functional, cell-based; conditions: HepG2, 72 h
[9] = Selectivity index, ratio of IC50 for human CCD 19Lu cells to IC50 for human HePAD38 cells
[10] = Induction of apoptosis in human HePAD38 cells assessed as necrotic cells at 1 uM measured after 24 hrs by Annexin-V/PI staining based flow cytometry assay (reference value: 0.903%); assay type: functional
[11] = Induction of apoptosis in human HePAD38 cells assessed as early apoptotic cells at 1 uM measured after 24 hrs by Annexin-V/PI staining based flow cytometry assay (reference value: 0.158%); assay type: functional
[12] = system: HeLa; test: Inhibition of human SERCA in human HeLa cells assessed as alteration of calcium dynamics at 1 uM measured by FLIPR calcium assay; assay type: cell-based
[13] = system: L02; test: Cytotoxicity against human L02 cells assessed as cell viability measured after 72 hrs by MTT assay; assay type: cell-based; conditions: L02, 72 h
[14] = system: BEAS-2B; test: Antiproliferative activity against human BEAS-2B cells assessed as inhibition of cell proliferation measured after 72 hrs by MTT assay; assay type: functional, cell-based
[15] = system: L02; test: Induction of apoptosis in human L02 cells assessed as necrotic cells at 1 uM measured after 24 hrs by Annexin-V/PI staining based flow cytometry assay (reference value: 0.848%); assay type: cell-based; conditions: l02, 24 h
[16] = Induction of apoptosis in human HePAD38cells assessed as late apoptotic cells at 1 uM measured after 24 hrs by Annexin-V/PI staining based flow cytometry assay (reference value: 0.032%); assay type: functional, HePAD38
[17] = Induction of apoptosis in human L02 cells assessed as viable cells at 1 uM measured after 24 hrs by Annexin-V/PI staining based flow cytometry assay (reference value: 97.5%); assay type: cell-based; conditions: read-out: Activity
[18] = system: HeLa; test: Inhibition of human SERCA in human HeLa cells assessed as depletion of SERCA-dependent calcium storage at 1 uM preincubated with TG by FLIPR calcium assay; assay type: cell-based
[19] = system: HeLa; test: Inhibition of human SERCA in human HeLa cells assessed as alteration of calcium dynamics at 1 uM preincubated with compound C measured after 2 hrs by FLIPR calcium assay; assay type: cell-based
[20] = system: L02; test: Induction of apoptosis in human L02 cells assessed as late apoptotic cells at 1 uM measured after 24 hrs by Annexin-V/PI staining based flow cytometry assay (reference value: 0.133%); assay type: cell-based; conditions: l02, 24 h
[21] = Selectivity index, ratio of IC50 for human CCD 19Lu cells to IC50 for human HepG2 cells; assay type: toxicity; conditions: CCD 19Lu cells versus HepG2 cells, read-out: Ratio IC50
[22] = Induction of apoptosis in human HePAD38 cells assessed as viable cells at 1 uM measured after 24 hrs by Annexin-V/PI staining based flow cytometry assay (reference value: 98.9%); assay type: functional; conditions: read-out: Activity
[23] = system: HepG2; test: Induction of apoptosis in human HepG2 cells assessed as late apoptotic cells at 1 uM measured after 24 hrs by Annexin-V/PI staining based flow cytometry assay (reference value: 0.016%); assay type: functional
[24] = system: HepG2; test: Induction of apoptosis in human HepG2 cells assessed as early apoptotic cells at 1 uM measured after 24 hrs by Annexin-V/PI staining based flow cytometry assay (reference value: 0.181%); assay type: functional

SMILES | IC50 [1] | selectivity ratio [3] | Ratio IC50 [4] | IC50 [5] | IC50 [8] | Ratio IC50 [9] | IC50 [13] | IC50 [14] | selectivity ratio [21] | also measured
CC1=C(O)C(=O)C=C2C1=CC=C1[C@@]2(C)CC[C@@]2(C)[C@@H]3C[C@](C)(C(=O)NC(CC(=O)OC(C)(C)C)C(=O)NC(CC(=O)OC(C)(C)C)C(=O)OC(C)(C)C)CC[C@]3(C)CC[C@]12C (stereo not given in full) | 2.75 µM | 4.6 | 12.75 | 0.44 µM | 1.22 µM | 5 | 5.61 µM | 0.786 µM | 1.81 | viability at 1 µM [2]: 69.7%; Activity [6]: 12.4%; Activity [7]: 3.62%; Activity [10]: 5.58%; Activity [11]: 2.27%; inhibition [12]: Active; Activity [15]: 2.14%; Activity [16]: 18.5%; viability at 24 h, 1 µM [17]: 82.6%; inhibition [18]: Active; inhibition [19]: Active; Activity [20]: 11.7%; viability at 1 µM [22]: 73.6%; Activity [23]: 14.5%; Activity [24]: 3.45%
CC1=C(O)C(=O)C=C2C1=CC=C1[C@@]2(C)CC[C@@]2(C)[C@@H]3C[C@](C)(C(=O)NC(CCC(=O)NC(CCC(=O)OC(C)(C)C)C(=O)OC(C)(C)C)C(=O)OC(C)(C)C)CC[C@]3(C)CC[C@]12C (stereo not given in full) | 6.19 µM | 2.23 | 2.01 | 4.74 µM | 4.27 µM | 12 | 9.55 µM | 38.6 µM | 13.4 | viability at 1 µM [2]: 80.2%; Activity [6]: 7.33%; Activity [7]: 6.2%; Activity [10]: 13.7%; Activity [11]: 1.85%; inhibition [12]: Active; Activity [15]: 1.64%; Activity [16]: 4.17%; viability at 24 h, 1 µM [17]: 86.7%; inhibition [18]: Active; inhibition [19]: Active; Activity [20]: 5.44%; viability at 1 µM [22]: 80.3%; Activity [23]: 11%; Activity [24]: 1.55%
CC1=C(O)C(=O)C=C2C1=CC=C1[C@@]2(C)CC[C@@]2(C)[C@@H]3C[C@](C)(C(=O)NC(CC(=O)NC(CCC(=O)OC(C)(C)C)C(=O)OC(C)(C)C)C(=O)OC(C)(C)C)CC[C@]3(C)CC[C@]12C (stereo not given in full) | 19.3 µM | 3.43 | 7.27 | 4.15 µM | 8.78 µM | 2.28 | 30.2 µM | 3.22 µM | 1.07 | –
CC1=C(O)C(=O)C=C2C1=CC=C1[C@@]2(C)CC[C@@]2(C)[C@@H]3C[C@](C)(C(=O)NC(CCC(=O)N(CC(=O)OC(C)(C)C)C(=O)OC(C)(C)C)C(=O)OC(C)(C)C)CC[C@]3(C)CC[C@]12C (stereo not given in full) | 3.4 µM | 1.52 | 0.91 | 2.55 µM | 1.54 µM | 3.4 | 2.34 µM | 1.33 µM | 5.96 | –
CC1=C(O)C(=O)C=C2C1=CC=C1[C@@]2(C)CC[C@@]2(C)[C@@H]3C[C@](C)(C(=O)NC(CCC(=O)OC(C)(C)C)C(=O)OC(C)(C)C)CC[C@]3(C)CC[C@]12C (stereo not given in full) | 4.2 µM | – | – | 1.54 µM | 2.52 µM | – | 4.23 µM | 0.62 µM | – | –
CC1=C(O)C(=O)C=C2C1=CC=C1[C@@]2(C)CC[C@@]2(C)[C@@H]3C[C@](C)(C(=O)NC(CC(=O)NC(CC(=O)OC(C)(C)C)C(=O)OC(C)(C)C)C(=O)OC(C)(C)C)CC[C@]3(C)CC[C@]12C (stereo not given in full) | 9.85 µM | 2.39 | 4.21 | 4.54 µM | 7.98 µM | 1.07 | 19.1 µM | 2.18 µM | 0.61 | –
COC(=O)CCNC(=O)[C@]1(C)CC[C@]2(C)CC[C@]3(C)C4=CC=C5C(=CC(=O)C(O)=C5C)[C@]4(C)CC[C@@]3(C)[C@@H]2C1 | 1.91 µM | – | – | – | 1.04 µM | – | 0.55 µM | 0.32 µM | – | –
CC1=C(O)C(=O)C=C2C1=CC=C1[C@@]2(C)CC[C@@]2(C)[C@@H]3C[C@](C)(C(=O)NC(CC(=O)OC(C)(C)C)C(=O)NC(CCC(=O)OC(C)(C)C)C(=O)OC(C)(C)C)CC[C@]3(C)CC[C@]12C (stereo not given in full) | 37.7 µM | 2.23 | 2.67 | 17 µM | 20.3 µM | 0.61 | 45.4 µM | 6.87 µM | 0.51 | –
CC1=C(O)C(=O)C=C2C1=CC=C1[C@@]2(C)CC[C@@]2(C)[C@@H]3C[C@](C)(C(=O)NCCCNC(=O)OC(C)(C)C)CC[C@]3(C)CC[C@]12C | 4.88 µM | – | – | – | 1.95 µM | – | 3.27 µM | 0.57 µM | – | –
CC1=C(O)C(=O)C=C2C1=CC=C1[C@@]2(C)CC[C@@]2(C)[C@@H]3C[C@](C)(C(=O)NC(CC(=O)OC(C)(C)C)C(=O)OC(C)(C)C)CC[C@]3(C)CC[C@]12C (stereo not given in full) | 4.92 µM | – | – | 11.8 µM | 3.56 µM | – | 15.4 µM | 3.72 µM | – | –
CC1=C(O)C(=O)C=C2C1=CC=C1[C@@]2(C)CC[C@@]2(C)[C@@H]3C[C@](C)(C(=O)NCCCNC(=O)[C@@]4(C)CC[C@@]5(C)CC[C@@]6(C)C7=CC=C8C(=CC(=O)C(O)=C8C)[C@@]7(C)CC[C@]6(C)[C@H]5C4)CC[C@]3(C)CC[C@]12C | 2.45 µM | – | – | – | 1.17 µM | – | 1.65 µM | 0.41 µM | – | –
CC1=C(O)C(=O)C=C2C1=CC=C1[C@@]2(C)CC[C@@]2(C)[C@@H]3C[C@](C)(C(=O)O)CC[C@]3(C)CC[C@]12C [CELASTROL] | 2.83 µM | 0.82 | 0.42 | 1.85 µM | 0.94 µM | 0.48 | 0.78 µM | 0.454 µM | 0.96 | viability at 1 µM [2]: 79.6%; Activity [6]: 1.61%; Activity [7]: 12.9%; Activity [10]: 9.47%; Activity [11]: 4.73%; inhibition [12]: Active; Activity [15]: 0.823%; Activity [16]: 10.5%; viability at 24 h, 1 µM [17]: 70.8%; inhibition [18]: Active; inhibition [19]: Active; Activity [20]: 15.5%; viability at 1 µM [22]: 75.3%; Activity [23]: 10%; Activity [24]: 8.7%
